Data from patent publication US10822309B2, “Crystalline form of Eluxadoline” (priority 2017, dated 2020).

Test: PXRD studies of capped and uncapped samples after storage in stability chambers (polymorphic stability)
Assay type: physicochemical
Procedure: Eluxadoline Form APO-I can be characterized by a PXRD diffractogram comprising, among other peaks, characteristic peaks, expressed in degrees 2θ (±0.2°), at 6.4°, 6.9° and 11.4°. Preferably, the PXRD diffractogram further comprises at least three peaks, expressed in degrees 2θ (±0.2°), selected from the group consisting of 8.7°, 9.9°, 12.7°, 14.8°, 15.8°, 17.5°, 18.9°, 19.8° and 23.8°. More preferably, the PXRD diffractogram further comprises peaks, expressed in degrees 2θ (±0.2°), at 8.7°, 9.9°, 12.7°, 14.8°, 15.8°, 17.5°, 18.9°, 19.8° and 23.8°. PXRD studies of capped and uncapped samples of Eluxadoline Form APO-I have shown that this crystal form is stable following storage in stability chambers maintained at 27° C./60% RH and 40° C./75% RH for at least 10 days.
PXRD diffractograms were recorded on a Bruker D8 Discover powder X-ray diffractometer (Bruker-AXS, Karlsruhe, Germany). The generator was a Micro-focus X-ray source (IMSTube: Cu tube with 1.54184 A) with a voltage of 50 kV and current of 1.00 mA, using a divergence slit of 0.3 mm and collimator of 0.3 mm. For each sample, one frame was collected using a still scan with a Pilatus 3R-100 kA detector at the distance of 154.72 mm from the sample. Raw data were evaluated using the program EVA (Bruker-AXS, Karlsruhe, Germany).

## COc1ccc(CN(C(=O)[C@@H](N)Cc2c(C)cc(C(N)=O)cc2C)[C@@H](C)c2nc(-c3ccccc3)c[nH]2)cc1C(=O)O [Eluxadoline Form APO-I, 5-({[(2S)-2-amino-3-(4-carbamoyl-2,6-dimethylphenyl)propionyl]-[(1S)-1-(4-phenyl-1H-imidazol-2-yl)ethyl]amino}-methyl)-2-methoxybenzoic acid]
Stability chamber 27° C./60% RH
  crystal form stable following storage (PXRD): at least 10 days
Stability chamber 40° C./75% RH
  crystal form stable / resists polymorph conversion following storage (PXRD): at least 10 days
